Measured values published in BigSolDB 2.1.

CCCCN(CCCC)CC(O)c1cc(Cl)cc2c1-c1ccc(Cl)cc1/C2=C/c1ccc(Cl)cc1 (stereo not given)
solubility (mole fraction)
Settings | 278.15 K | 283.15 K | 288.15 K | 293.15 K | 298.15 K | 303.15 K | 308.15 K | 313.15 K | 318.15 K | 323.15 K
in ethyl acetate | 0.00178 | 0.00234 | 0.00317 | 0.00411 | 0.0054 | 0.00693 | 0.00903 | 0.0116 | 0.0152 | 0.0201
in methanol | 1.34e-05 | 1.7e-05 | 2.28e-05 | 3.04e-05 | 3.82e-05 | 4.97e-05 | 6.3e-05 | 8.2e-05 | 0.000106 | 0.000136
in n-butyl acetate | 0.00425 | 0.00533 | 0.00674 | 0.00866 | 0.0108 | 0.0138 | 0.0176 | 0.0223 | 0.0286 | 0.036
in n-pentyl acetate | 0.00475 | 0.00656 | 0.00849 | 0.011 | 0.0137 | 0.0168 | 0.0212 | 0.0253 | 0.0327 | 0.0407
in n-propyl acetate | 0.00281 | 0.00366 | 0.00486 | 0.00656 | 0.00841 | 0.0109 | 0.0139 | 0.018 | 0.0231 | 0.0305
